What was measured:
[1] = Preliminary pharmacokinetic studies (serum exposure); assay type: in vivo, wild-type mice
[2] = system: HBG1 mRNA and HbF protein in bone marrow cells; experiment: Induction of fetal hemoglobin by hydroxyurea and I-73 in human CD34+ cell reconstituted immunodeficient mice, with analysis of synergistic effect; assay type: in vivo, NBSGW mice engrafted with human CD34+ cells
Experimental: The model employed for assessment of induction of fetal hemoglobin by I-73 and hydroxyurea involved the use of human stem cell-reconstituted immunodeficient mice. Specifically, three hundred thousand human CD34-positive cells from G-CSF-mobilized human peripheral blood […] (PBMCs) were injected into the tail veins of NOD.Cg-KitW-41J Tyr+Prkdcscid Il2rgtm1Wjl/ThomJ (NBSGW) mice (JAX Strain No. 026622) on day 0. Twelve weeks later, mice were checked for human cell engraftment by sampling PBMCs from blood taken from the tail vein and staining for expression of murine or human CD45 by flow cytometry. After removing from the study those mice having greater than 10% human cells or less than 1% human cells in their peripheral blood, the remaining mice were randomized into treatment groups based on the human cell percentage. Thirteen weeks post engraftment, treatment was initiated with either hydroxyurea, I-73, or a combination of both compounds. Hydroxyurea was formulated in PBS (pH 7.4) and I-73 was formulated in 5% Cremophor RH 40/20% hydroxypropyl-β-cyclodextrin (Crem-CD) daily. Mice received either PBS or hydroxyurea each morning and I-73 or Crem-CD each afternoon by oral gavage. After twenty days of daily treatment, the mice were euthanized and their bone marrow (femurs, tibia and critae) were individually collected for subsequent analysis.
Bone marrow cell pellets (total 500K cells) were lysed in 20 μL of RLT (QIAGEN, 79216) with 1×β-mercaptoethanol (Gibco, 21985-023) and H2O followed by hybridizations. Hybridizations were done in a total volume of 15 μL [3 μL of RNA lysate added to master mix of 12 μL probe A/B (purchased from IDT), capture probe/reporter probes (NanoString™, XT TagSet-24, 121000602), proteinase K (Fisher Scientific, E00491) and H2O suspended in hybridization buffer]. Samples were hybridized at 65° C. for 22 hr. Following hybridization, the tripartide complexes were purified, immobilized by nCounter Prep Station and imaged by Digital Analyzer (nCounter MAX/FLEX Analysis System), to generate digital counts of barcodes corresponding to each target in the multiplexed reaction. Labeled barcodes obtained from unamplified extracts were counted at 555 images or field of view (FOV). The barcode counts for each sample were recorded in Reporter Code Count (RCC) files that are imported into nSolver analysis software (provided with CodeSet by NS) for quality control evaluation.
To assess levels of fetal hemoglobin by AlphaLISA, cells (200 k bone marrow cells/well) were lysed by resuspending pellets in 200 μL of lysis buffer plus protease inhibitor cocktail (100×), mixed well and incubating at room temperature for 30 minutes on the plate shaker @300 RPMs. Samples were then diluted 1:10 in a new 96-well round bottom plate by taking 10 uL of lysate and adding 90 μL of AlphaLISA immunoassay buffer. To create the “reaction plate”, 20 μL of Acceptor Beads (50 ug/mL final concentration) was added to each well using a multi-channel pipet. 10 uL of diluted cell lysate was added to the wells and mixed well. 20 μL of AlphaLISA immunoassay buffer was added to each well. Biotinylated antibody (final concentration) was then added to each well. The reaction plate on then placed on a plate shaker at 300 rpm for one hour to incubate at room temperature. After the first incubation was complete, 50 μL of Donor Beads ([…] final concentration) was added to each well and mixed well, keeping the plate in the dark. The covered plate was placed on a shaker at 350 rpm for 30 minutes to incubate at room temperature. After incubation, all 100 uL in each to an AlphaPlate in the dark. Plates were read on a VictorNIVO using the “Alpha 96 Well” setting. Alpha reading was programmed as the default setting with emission at 700 ms and 575/110n. […]

## CCN1C(=O)[C@@H](NC(=O)c2cccc(C(F)(F)F)c2)[C@@H](c2ccc(F)cc2)c2c([C@@H](C)NC#N)nn(-c3ccccc3)c21 [Compound I-73, N-((4S,5S)-3-((R)-1-cyanamidoethyl)-7-ethyl-4-(4-fluorophenyl)-6-oxo-1-phenyl-4,5,6,7-tetrahydro-1H-pyrazolo[3,4-b]pyridin-5-yl)-3-(trifluoromethyl)benzamide]
[1]; dosing at 25 and 100 mg/kg
  serum concentrations relative to that required to inhibit DCN-1: equivalent to or greater than that required to inhibit DCN-1
[1]; wild-type mice
  in vivo serum exposure levels: predicted to be sufficient for fetal hemoglobin induction
[2]; I-73 25 mg/kg alone, WLS ANOVA estimate
  average increase of HbF % over vehicle: 1.11
[2]; compared with vehicle treatment group, FIG. 7
  percentage of HbF protein by HPLC in GlyA-positive bone marrow cells: significant increase
[2]; in vivo
  percentage of bone marrow cells expressing human CD45: did not alter
[2]; treatment alone
  HbF level on a per erythroid progenitor (GlyA-positive) cell basis by AlphaLISA: induced increased levels of HbF

Reference: patent US20250163057A1, “DCN-1 MODULATING COMPOUNDS AND METHODS OF USE THEREOF” (Cellarity, Inc., priority 2023, published 2025)
